The values below come from PubChem BioAssay (NCI).

Holding throughout (assay): inhibition of tumour cell growth, NCI panel, 48 h
The subject of assay [1] is TK-10 renal.
For assay [2], the system named is HCT-116 colon.
Assay [3] relates to MDA-MB-435.
Assay [4] has as its system OVCAR-4 ovarian.
Assay [5] relates to BT-549 breast.
The test system of assay [6] is U251 CNS.
For assay [7], the system named is IGROV1 ovarian.
The subject of assay [8] is K-562 leukemia.
In assay [9] the test system is SF-539 CNS.
Assay [10] relates to HL-60(TB) leukemia.

“And” between values parts separate entries of the source, which are not always exact repeats. Equal values may be shown once.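 Dose response: 5 concentrations. Exposure: 48 h. Format: 96-well plates. Endpoint: linear interpolation; highest concentration if not reached. GI50: concentration for 50% inhibition of growth. TGI is the concentration that stops growth completely.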

With `COc1cc(-c2nc(SCC(=O)Nc3ccc(C(C)=O)cc3)[nH]c(=O)c2C#N)cc(OC)c1OC`, the GI50 in [1] is 96.9 µM; in [2], 42.1 µM; in assay [3] it was 24.4 µM; in assay [4] it was 82.9 µM; in [5], 32 µM; in assay [6] it was 55.6 µM. Further, the GI50 in [7] was 53.4 µM; in assay [8], 37.7 µM; in assay [9], 29.6 µM; in [10], 35 µM. Further, the TGI in [1] was greater than 100 µM; in [2] it was greater than 100 µM; in assay [3], 87.6 µM; in [4], greater than 100 µM; in assay [5] it was 99.7 µM; in assay [6], greater than 100 µM. Further, the TGI in assay [7], in assay [8], in [9] and in assay [10] was greater than 100 µM throughout.
For `CCOC(=O)c1c(C)n(CC(C)C)c2c1cc1oc(=O)c(=O)n3cnc2c13`, the GI50 in [1] was 13.3 µM; in [2], 14.8 µM; in assay [3], 9.07 µM; in assay [4], 17.4 µM; in assay [5] it was 15.7 µM; in assay [6], 10 µM. In addition, the GI50 in assay [7] was 15.1 µM; in assay [8] it was 16.1 µM; in [9] it was 15.6 µM; in assay [10], 11.5 µM. The TGI in assay [1] is 47.6 µM; in [2], greater than 50 µM; in assay [3], 16.8 µM; in assay [4] it was greater than 50 µM; in assay [5], 43 µM; in assay [6], 24.1 µM. The TGI in [7] was greater than 50 µM; in assay [8], greater than 50 µM; in [9] it was 42 µM; in [10], 36.4 µM.
As for `O=C1/C(=C/c2ccc([N+](=O)[O-])s2)Oc2ccccc21`, the GI50 in assay [1] is 1.68 µM; in assay [2] it was 0.267 µM; in assay [3], 1.3 µM; in assay [4] it was 0.538 µM; in [5] it was 0.745 µM; in assay [6], 0.561 µM. Moreover, the GI50 is 0.839 µM in [7], 0.243 µM in [8], 0.654 µM in assay [9] and 0.96 µM in assay [10]. The TGI in assay [1] stood at 3.59 µM; in assay [2], 0.791 µM; in assay [3], 3.17 µM; in [4], 2.8 µM; in assay [5] it was 1.98 µM; in assay [6], 1.82 µM. The values for the TGI in assay [7], in assay [8] and in assay [9] were 2.45 µM, 0.728 µM and 2.1 µM, respectively.
`CCCCCC(=O)OCC(=O)O[C@@H]1C[C@]2(C(C)C)O[C@@]1(C)[C@@H]1CC[C@@H](C)[C@H]1[C@@H]2OC(=O)/C=C/c1ccccc1`: the GI50 in assay [1] was greater than 51.1 µM; in assay [2], 32.2 µM; in [3], greater than 58.2 µM; in assay [4], 26.5 µM; in [5], 0.0923 µM; in assay [6], greater than 53.1 µM. The GI50 in [7] was greater than 33.4 µM; in assay [8] it was greater than 41.3 µM; in assay [9], greater than 51.3 µM; in assay [10], greater than 53.2 µM. The TGI was greater than 93.5 µM in [1]; greater than 100 µM in [2]; greater than 86.4 µM in [3]; greater than 71.5 µM in assay [4]; 14.4 µM in assay [5]; greater than 100 µM in assay [6]. In addition, the TGI in assay [7] is greater than 55.8 µM; in assay [8], greater than 100 µM; in [9], greater than 76.2 µM; in assay [10], greater than 80.3 µM.
Take `CCN(CC)CCCCCOc1cc(O)c2c(=O)cc(-c3ccccc3)oc2c1`: the GI50 in assay [1] was 7.1 µM; in assay [2], 1.74 µM; in [3] it was 3.18 µM; in assay [4] it was 7.27 µM; in assay [5] it was 12.5 µM; in [6], 3.16 µM. Besides, the GI50 in [7] was 2.08 µM; in [8] it was 1.86 µM; in assay [9] it was 2.43 µM; in assay [10], 2.67 µM. For the same molecule, the TGI came out at 27.1 µM in assay [1]; 3.52 µM in [2]; 7.63 µM in assay [3]; 20.5 µM in assay [4]; 26.5 µM in assay [5]; 11.8 µM in [6]. The TGI in assay [7] came to 4.87 µM; in [8] it was 3.56 µM; in assay [9], 6.01 µM; in [10] it was 7.1 µM.
Regarding `CC1CCC2C(C)C3C(CC4C5CC=C6CC(OC7OC(CO)C(O)C(OC8OC(CO)C(O)C(O)C8O)C7OC7OC(C)C(O)C(O)C7O)CCC6(C)C5CCC43C)N2C1` (configuration not stated), the GI50 in assay [1], in assay [2], in [3], in [4], in assay [5] and in [6] was greater than 2.5 µg/mL throughout. The GI50 in assay [7] and in assay [8] was greater than 2.5 µg/mL each time. Moreover, the TGI was 30.6 µM and > 2.5 µg/mL in [1]; 24.5 µM and > 2.5 µg/mL in assay [2]; 21 µM and > 2.5 µg/mL in [3]; 20.3 µM and > 2.5 µg/mL in assay [4]; 31.9 µM and > 2.5 µg/mL in assay [5]; 31.1 µM and > 2.5 µg/mL in [6]. Further, the TGI in [7] was 26.2 µM and > 2.5 µg/mL; in assay [8], 54.4 µM and > 2.5 µg/mL; in assay [9], 23.8 µM; in assay [10] it was 25.4 µM.
On to `COc1ccc(C2C(c3ccccc3)C(=O)N2c2cc(OC)c(OC)c(OC)c2)cc1I` (configuration not stated), for which the GI50 in assay [1] was greater than 100 µM; in [2], 0.343 µM; in assay [3], 0.209 µM; in assay [4], 0.709 µM; in [5] it was 0.419 µM; in [6], 0.388 µM. The GI50 was 0.58 µM in [7], 0.339 µM in assay [8], 0.234 µM in assay [9] and 0.225 µM in assay [10]. The TGI was greater than 100 µM in assay [1]; 12.4 µM in assay [2]; 0.644 µM in assay [3]; greater than 100 µM in [4]; 5.36 µM in [5]; greater than 100 µM in [6]. In addition, the TGI in assay [7] is greater than 100 µM; in assay [8] it was greater than 100 µM; in [9] it was 0.657 µM; in assay [10] it was 0.533 µM.
